In patent publication US20210115104A1, “AMYLIN ANALOGUES” (Zealand Pharma A/S, priority 2015, published 2021):
*1 amine or outer side, *2 acyl side, *3 side chain or, on linkers, in order; H or OH if unused. Where a SMILES comes first, the peptide text is derived from it. Bridges are numbered along the chain shown (N, C = ends). [ ]: non-standard residue; d: D form. The star is where a group is joined. C20 diacid = O=C(O)CCCCCCCCCCCCCCCCCCC(=O)*; γGlu = O=C(O)[C@H](CCC(=O)[*:2])N[*:1]; Hyp = O=C(O)[C@@H]1C[C@@H](O)CN1; NMeI = CC[C@H](C)[C@H](NC)C(=O)O; Sar = CNCC(=O)O

Columns and labels:
[1] = biological target: T1, human amylin receptor 3 (hAMYR3), hCTR2 co-expressed with hRAMP3 (Homo sapiens, UniProt O60896+P30988); assay: hAMYR3 cAMP assay (AlphaScreen) in COS7 cells; assay type: cell-based; settings: cAMP induction, COS7 cells expressing hAMYR3; Table 1; read-out: hAMYR3 EC50
T1 construct: expressed in transfected cells
T1 sequence (P30988 25-474): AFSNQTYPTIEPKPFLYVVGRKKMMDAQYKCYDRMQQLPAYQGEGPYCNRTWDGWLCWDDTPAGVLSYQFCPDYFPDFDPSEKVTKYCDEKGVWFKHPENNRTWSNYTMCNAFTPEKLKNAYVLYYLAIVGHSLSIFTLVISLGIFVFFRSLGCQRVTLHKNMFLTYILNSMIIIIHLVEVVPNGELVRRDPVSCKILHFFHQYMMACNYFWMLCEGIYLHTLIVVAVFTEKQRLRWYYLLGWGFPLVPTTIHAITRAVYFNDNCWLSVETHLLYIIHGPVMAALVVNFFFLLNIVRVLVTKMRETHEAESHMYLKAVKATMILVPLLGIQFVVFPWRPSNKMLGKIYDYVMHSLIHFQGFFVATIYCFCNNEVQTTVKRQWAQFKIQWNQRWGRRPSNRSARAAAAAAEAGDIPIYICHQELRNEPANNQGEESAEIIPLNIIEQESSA
T1 sequence (O60896 24-148 partner): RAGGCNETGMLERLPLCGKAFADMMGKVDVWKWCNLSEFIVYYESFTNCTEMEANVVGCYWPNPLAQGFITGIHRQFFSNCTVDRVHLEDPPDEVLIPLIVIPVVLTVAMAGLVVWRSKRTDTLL
From the text: The cell line COS7, originating from African Green Monkey kidney fibroblast cells, was used for establishment of the stable cell lines described below. The COS7 cellular background was used due to it being RAMP naïve, and as such it provides the best available system for testing of the monomeric hCTR and different heterodimeric amylin receptor subtypes functionally generated by introduction of the individual RAMPs.
A cell line expressing the human amylin receptor 3 (hAMYR3) was generated in the COS7 cellular background as stable clones. In brief, hCTR2 (GI:4502547) and hRAMP3 (GI:118572586) were amplified by PCR using primers encoding terminal restriction sites for subcloning. The 5′-end primers additionally encoded a near Kozak consensus sequence to ensure efficient translation. The fidelity of the DNA encoding the receptor was confirmed by DNA sequencing. The PCR products encoding the receptor were subcloned into a proprietary tri-cistronic mammalian expression vector with RAMP3, hCTR2 and neomycin (G418) resistance marker. The mammalian expression vector encoding the receptor was transfected into COS7 cells by a standard liposome transfection method. 48 hours post-transfection, cells were seeded for limited dilution cloning and selected with 1 mg/ml G418 in the culture medium. After 3 weeks, surviving colonies of hAMY3R-expressing cells were picked, propagated and tested in the amylin efficacy assay as described in Example 3 below. The functional generation of the amylin receptor phenotype was verified in the efficacy assay by a left-shifted efficacy response to amylin relative to monomeric calcitonin receptor, and one hAMYR3-expressing clone was chosen for compound profiling.
In vitro activity of test peptides at the hCTR2 and hAMYR3 receptors was assessed by measuring the induction of cAMP following stimulation of the receptor using the AlphaScreen® cAMP Assay kit from Perkin-Elmer.
Briefly, COS7 cells expressing hCTR2 (see Example 2, above) were seeded at 30-40,000 cells per well in 96-well microtiter plates coated with 0.01% poly-L-lysine, and grown for 1 day in culture in 100 μl growth medium [DMEM, 10% FCS, Penicillin (100 IU/ml), Streptomycin (100 μg/ml)]. On the day of analysis, growth medium was removed and the cells were washed once with 200 μl Tyrode buffer [Tyrode's Salts (9.6 g/I), 10 mM HEPES, pH 7.4]. Cells were incubated in 100 μl Tyrode buffer containing increasing concentrations of test peptides, 100 µM IBMX and 0.1% casein for 15 min at 37° C. The reaction was stopped by carefully decanting off the compound/buffer medium and replacing it with lysis/detection buffer (80 μl 0.1% w/v BSA, 5 mM HEPES, 0.3% v/v Tween-20 in deionized water). After incubation at room temperature for 10 min., the cAMP content of the resulting cell lysate was estimated according to the AlphaScreen® cAMP Assay manufacturer's instructions. EC50 values were estimated by computer-aided curve fitting using the 4-parameter logistic (4PL) non-linear model.

[2] = Assessment of physical stability (Thioflavin T fibrillation); assay type: physicochemical; parameters: key: FND = fibrillation not detected; FD = fibrillation detected; settings: 1 mg/ml, 40° C., ThT; for Fibrillation pH 4.0 (Ac): 50 mM acetate buffer pH 4.0, 96 hours; for Fibrillation pH 7.0 (His): 50 mM histidine buffer pH 7.0, 96 hours; for Fibrillation pH 7.0 (Phos.): 50 mM phosphate buffer pH 7.0, 96 hours
How it was run: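 1 mg/ml peptide with 40 μM ThT in 50 mM phosphate pH 7.0, 50 mM histidine pH 7.0 or 50 mM acetate pH 4.0, in triplicate. Fluorescence read every 10 min after 300 s agitation over 96 h at 40 °C. Lag-time (h) is the intersection of linear fits to stable and growth phases.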

[3] = biological target: T2, human calcitonin receptor (hCTR2) (Homo sapiens, UniProt P30988); assay: hCTR2 cAMP assay (AlphaScreen) in COS7 cells; assay type: cell-based; settings: cAMP induction, COS7 cells expressing hCTR2; Table 1; read-out: hCTR2 EC50
T2 construct: expressed in transfected cells
T2 sequence (P30988 25-474): T1 sequence (P30988 25-474)
How it was run: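 Stable hCTR2 clone in RAMP-naïve COS7 cells stimulated 15 min at 37 °C with increasing peptide concentrations in Tyrode buffer pH 7.4 containing IBMX and 0.1% casein. cAMP in lysates measured by AlphaScreen; EC50 from 4-parameter logistic fit.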

[4] = Assessment of chemical stability (RP-HPLC normalized purity); assay type: physicochemical; settings: 7 days, 40° C., Table 1
How it was run: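 Peptides at 0.2 mg/ml in water adjusted to pH 4, 6, 7.5 or 9, incubated at 40° C for 7 days. Main-peak area-% by RP-HPLC (C8 ammonium formate or C18 TFA gradient, UV 220 nm), normalized to T=0 as 100.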

For `CC[C@H](C)[C@@H](C(=O)N[C@@H](CC(C)C)C(=O)N[C@@H](CO)C(=O)N[C@@H](CO)C(=O)N[C@H](C(=O)N[C@@H](CCC(=O)O)C(=O)N[C@H](C(=O)NCC(=O)N[C@@H](CO)C(=O)N[C@@H](CCC(=O)O)C(=O)N[C@H](C(=O)N1CCC[C@H]1C(N)=O)[C@@H](C)O)C(C)C)[C@@H](C)O)N(C)C(=O)[C@H](C)NC(=O)CN(C)C(=O)[C@H](Cc1ccccc1)NC(=O)[C@H](CO)NC(=O)[C@H](CO)NC(=O)[C@H](CCCNC(=N)N)NC(=O)[C@@H](NC(=O)[C@H](CC(C)C)NC(=O)[C@H](Cc1ccccc1)NC(=O)[C@H](Cc1c[nH]cn1)NC(=O)[C@H](C)NC(=O)[C@H](CC(C)C)NC(=O)[C@H](CCCNC(=N)N)NC(=O)[C@H](CCC(=O)O)NC(=O)[C@@H](NC(=O)[C@H](C)NC(=O)[C@@H]1CSSC[C@H](NC(=O)[C@H](CCCNC(=N)N)NC(=O)CC[C@H](NC(=O)CCCCCCCCCCCCCCCCCCC(=O)O)C(=O)O)C(=O)NCC(=O)N[C@@H]([C@@H](C)O)C(=O)N[C@@H](C)C(=O)N[C@@H]([C@@H](C)O)C(=O)N1)[C@@H](C)O)C(C)C` [Compound 22, [19CD]-isoGlu-R-C( )-GTAT-C( )-ATERLAHFLVRSSF-Gly(Me)-A-Ile(Me)-LSSTEVGSETP-NH2] ({C20 diacid-γGlu}-RCGTATCATERLAHFLVRSSF[Sar]A[NMeI]LSSTEVGSETP-NH2; disulfide 2-7), the EC50 [1] was 0.59 nM, the “Fibrillation pH 4.0 (Ac)” value [2] was “FND” and the “Fibrillation pH 7.0 (His)” value [2] was “FD”. The “Fibrillation pH 7.0 (Phos.)” value [2] was “FND”.

Compound `CC[C@H](C)[C@@H](C(=O)N[C@@H](CC(C)C)C(=O)N[C@@H](CO)C(=O)N[C@@H](CO)C(=O)N[C@H](C(=O)N[C@@H](CCC(=O)O)C(=O)N[C@H](C(=O)NCC(=O)N[C@@H](CO)C(=O)N[C@@H](CCC(=O)O)C(=O)N[C@H](C(=O)N1CCC[C@H]1C(N)=O)[C@@H](C)O)C(C)C)[C@@H](C)O)N(C)C(=O)[C@H](C)NC(=O)CN(C)C(=O)[C@H](Cc1ccccc1)NC(=O)[C@H](CO)NC(=O)[C@H](CO)NC(=O)[C@H](CCCNC(=N)N)NC(=O)[C@@H](NC(=O)[C@H](CC(C)C)NC(=O)[C@H](Cc1ccccc1)NC(=O)[C@H](Cc1c[nH]cn1)NC(=O)[C@H](C)NC(=O)[C@H](CC(C)C)NC(=O)[C@H](CCCNC(=N)N)NC(=O)[C@H](CCC(N)=O)NC(=O)[C@@H](NC(=O)[C@H](C)NC(=O)[C@@H]1CSSC[C@H](NC(=O)[C@H](CCCNC(=N)N)NC(=O)CC[C@H](NC(=O)CCCCCCCCCCCCCCCCCCC(=O)O)C(=O)O)C(=O)N[C@@H](CC(N)=O)C(=O)N[C@@H]([C@@H](C)O)C(=O)N[C@@H](C)C(=O)N[C@@H]([C@@H](C)O)C(=O)N1)[C@@H](C)O)C(C)C` [Compound 24, [19CD]-isoGlu-R-C( )-NTAT-C( )-ATQRLAHFLVRSSF-Gly(Me)-A-Ile(Me)-LSSTEVGSETP-NH2] ({C20 diacid-γGlu}-RCNTATCATQRLAHFLVRSSF[Sar]A[NMeI]LSSTEVGSETP-NH2; disulfide 2-7) has an EC50 [3] of 0.085 nM and an EC50 [1] of 0.19 nM.

For `CC[C@H](C)[C@@H](C(=O)N[C@@H](CC(C)C)C(=O)N[C@@H](CO)C(=O)N[C@@H](CO)C(=O)N[C@H](C(=O)N[C@@H](CCC(=O)O)C(=O)N[C@H](C(=O)NCC(=O)N[C@@H](CO)C(=O)N[C@H](C(=O)N[C@H](C(=O)N1C[C@H](O)C[C@H]1C(N)=O)[C@@H](C)O)[C@@H](C)O)C(C)C)[C@@H](C)O)N(C)C(=O)[C@H](C)NC(=O)CN(C)C(=O)[C@H](Cc1ccccc1)NC(=O)[C@H](CO)NC(=O)[C@H](CO)NC(=O)[C@H](CCCNC(=N)N)NC(=O)[C@@H](NC(=O)[C@H](CC(C)C)NC(=O)[C@H](Cc1ccccc1)NC(=O)[C@H](Cc1c[nH]cn1)NC(=O)[C@H](C)NC(=O)[C@H](CC(C)C)NC(=O)[C@H](CCCNC(=N)N)NC(=O)[C@H](CCC(=O)O)NC(=O)[C@@H](NC(=O)[C@H](C)NC(=O)[C@@H]1CSSC[C@H](NC(=O)[C@H](CCCNC(=N)N)NC(=O)CC[C@H](NC(=O)CCCCCCCCCCCCCCCCCCC(=O)O)C(=O)O)C(=O)NCC(=O)N[C@@H]([C@@H](C)O)C(=O)N[C@@H](C)C(=O)N[C@@H]([C@@H](C)O)C(=O)N1)[C@@H](C)O)[C@@H](C)O` [Compound 48, [19CD]-isoGlu-R-C( )-GTAT-C( )-ATERLAHFLTRSSF-Gly(Me)-A-Ile(Me)-LSSTEVGSTT-Hyp-NH2] ({C20 diacid-γGlu}-RCGTATCATERLAHFLTRSSF[Sar]A[NMeI]LSSTEVGSTT[Hyp]-NH2; disulfide 2-7), the EC50 [1] was 0.26 nM, the “Fibrillation pH 4.0 (Ac)” value [2] was “FND” and the “Fibrillation pH 7.0 (His)” value [2] was “FND”. For the same compound, the “Fibrillation pH 7.0 (Phos.)” value [2] was “FND”, the “Normalized purity after 7 days, 40° C., pH 4” value ([4]; pH 4, 0.2 mg/ml) was “A (A = >90%)” and the “Normalized purity after 7 days, 40° C., pH 6” value ([4]; pH 6, 0.2 mg/ml) was “A (A = >90%)”. For the same compound, the “Normalized purity after 7 days, 40° C., pH 7.5” value ([4]; pH 7.5, 0.2 mg/ml) was “A (A = >90%)” and the “Normalized purity after 7 days, 40° C., pH 9” value ([4]; pH 9, 0.2 mg/ml) was “A (A = >90%)”.
